Laboratory results from article PMC7316994, “In Vitro Pharmacological Profile of a New Small Molecule Bradykinin B2 Receptor Antagonist” (Frontiers in Pharmacology, 2020).
Where two headings read alike, the source gives them in different places.

What was measured:
[1] = biological target: T1, myc-tagged human B2 receptor (Homo sapiens, UniProt P30411); experiment: antibody internalization assay, HEK 293a cells; assay type: cell-based; conditions: BK 100 nM; antagonist 1 nM to 1 μM, 15 min before BK
T1 construct: expressed in transfected cells
Experimental: B2 receptor-mediated transport of immune complexes constructed at the cell surface was previously reported ([Bawolak et al., 2011]). Intact HEK 293a cells stably expressing the N-terminally myc-tagged B2 receptor construction (human sequence, [Charest-Morin et al., 2015]) were treated with the monoclonal anti-myc antibody (clone 4A6) conjugated with AlexaFluor-488 (Millipore, dilution 1:500) added to the culture medium. Cells were further incubated at 37°C. Without rinsing, a selected antagonist or their DMSO vehicle was added 5 min later, and BK (100 nM) or its saline vehicle 15 min later. After an additional 30 min incubation period at 37°C, cells were rinsed 3 times with Hank's balanced salt solution (Multicell Wisent, St. Bruno, Canada) and photographed in transmission and epifluorescence using an Olympus BX51 microscope coupled to a CoolSnap HQ digital camera (filters for AlexaFluor 488: excitation 460–500 nm, emission 510–560 nm).

[2] = biological target: Cholecystokinin CCK2 (CCKB) (Homo sapiens, UniProt P32239); experiment: radioligand binding (Table S2); conditions: [125I] CCK-8, Human recombinant Chem-1 cells
[3] = system: Potassium channel (Ca activated) SKCa channel; experiment: radioligand binding (Table S2); conditions: [125I] Apamin, Rat cerebral cortex
Serotonin 5-HT2C = biological target: T2, Serotonin 5-HT2C (Homo sapiens, UniProt P28335); experiment: radioligand binding (Table S2); conditions: [3H] Mesulergine, Human recombinant HEK-293 cells
T2 construct: host or cells: HEK-293 cells

Galanin GAL1 = Galanin GAL1 (Homo sapiens, UniProt P47211); experiment: radioligand binding (Table S2); conditions: [125I] Galanin, Human recombinant HEK-293 cells
PDE4D2 = PDE4D2 (Homo sapiens, UniProt Q08499); experiment: enzyme assay (Table S2); assay type: biochemical; conditions: [3H]cAMP + cAMP (0.5 µM), Scintillation counting
[4] = system: Muscarinic, oxotremorine M; experiment: radioligand binding (Table S2); conditions: [3H] Oxotremorine M, Wistar rat cerebral cortex
Adrenergic α2A = Adrenergic α2A (Homo sapiens, UniProt P08913); experiment: radioligand binding (Table S2); conditions: read-out: % Inhibition @ 10 µM
Cholecystokinin CCK1 = Cholecystokinin CCK1 (Homo sapiens, UniProt P32238); experiment: radioligand binding (Table S2); conditions: [125I] CCK-8s, Human recombinant CHO cells
Motilin = Motilin (Homo sapiens, UniProt O43193); experiment: radioligand binding (Table S2); conditions: [125I] Motilin, Human recombinant CHO cells
Bombesin BB2 = biological target: T3, Bombesin BB2 (Homo sapiens, UniProt P30550); experiment: radioligand binding (Table S2); conditions: [125I] [Tyr4]-bombesin, Human recombinant HEK-293 cells
T3 construct: host or cells: HEK-293 cells

Adrenergic β2 = Adrenergic β2 (Homo sapiens, UniProt P07550); experiment: radioligand binding (Table S2); conditions: read-out: % Inhibition @ 10 µM
[5] = biological target: Nicotinic acetylcholine α1, bungarotoxin (Homo sapiens, UniProt P02708+P07510+Q07001); experiment: biochemical; assay type: binding; conditions: read-out: % Inhibition @ 10 µM
Purinergic receptor P2X = experiment: radioligand binding (Table S2); conditions: [3H] α,β-MeATP, Rat urinary bladder
Kainate = experiment: radioligand binding (Table S2); conditions: [3H] Kainic acid, Rat cerebral cortex
Prostanoid EP1 = biological target: T4, Prostanoid EP1 (Homo sapiens, UniProt P34995); experiment: radioligand binding (Table S2); conditions: [3H] Prostaglandin E2, Human recombinant HEK-293 cells
T4 construct: host or cells: HEK-293 cells

Somatostatin sst2 = Somatostatin sst2 (Homo sapiens, UniProt P30874); experiment: radioligand binding (Table S2); conditions: [125I] Tyr11-Somatostatin 14, Human recombinant CHO-K1 cells
B2 receptor = biological target: T5, B2 receptor (Homo sapiens, UniProt P30411); experiment: Ca^2+ mobilization assay, transfected CHO cells; assay type: cell-based; parameters: host or cells: CHO cells; conditions: inhibition of response to 0.03 nM BK
T5 sequence (P30411 1-391): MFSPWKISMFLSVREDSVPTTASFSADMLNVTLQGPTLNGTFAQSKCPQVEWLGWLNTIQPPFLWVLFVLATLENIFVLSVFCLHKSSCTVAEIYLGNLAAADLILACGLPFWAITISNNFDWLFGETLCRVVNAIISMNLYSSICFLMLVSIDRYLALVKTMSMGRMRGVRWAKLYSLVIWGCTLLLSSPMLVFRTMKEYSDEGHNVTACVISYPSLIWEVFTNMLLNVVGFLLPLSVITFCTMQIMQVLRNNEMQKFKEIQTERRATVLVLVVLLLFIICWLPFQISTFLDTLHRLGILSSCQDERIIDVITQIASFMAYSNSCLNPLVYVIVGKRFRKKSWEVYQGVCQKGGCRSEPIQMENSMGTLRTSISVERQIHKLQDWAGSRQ

Muscarinic M4 = Muscarinic M4 (Homo sapiens, UniProt P08173); experiment: radioligand binding (Table S2); conditions: read-out: % Inhibition @ 10 µM
Neurokinin NK2 = biological target: T6, Neurokinin NK2 (Homo sapiens, UniProt P21452); experiment: radioligand binding (Table S2); conditions: [125I] NKA, Human recombinant CHO cells
T6 construct: host or cells: CHO cells
T6 sequence (P21452 1-398): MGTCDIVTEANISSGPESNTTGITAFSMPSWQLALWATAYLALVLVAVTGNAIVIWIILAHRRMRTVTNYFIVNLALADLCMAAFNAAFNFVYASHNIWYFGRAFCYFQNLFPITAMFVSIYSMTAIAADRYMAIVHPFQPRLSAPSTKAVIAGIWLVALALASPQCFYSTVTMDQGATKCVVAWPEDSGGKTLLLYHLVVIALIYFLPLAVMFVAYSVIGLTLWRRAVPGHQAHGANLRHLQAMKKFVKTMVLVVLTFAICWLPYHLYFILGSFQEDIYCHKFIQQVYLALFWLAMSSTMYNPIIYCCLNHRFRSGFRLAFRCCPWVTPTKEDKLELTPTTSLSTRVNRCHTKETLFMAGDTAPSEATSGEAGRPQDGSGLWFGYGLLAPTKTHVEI

[6] = system: Calcium Ca2+ channel (L-dihydropyridine site); experiment: radioligand binding (Table S2); conditions: [3H] Nitrendepine, Rat cerebral cortex

Somatostatin sst2, sequence (P30874 whole entry): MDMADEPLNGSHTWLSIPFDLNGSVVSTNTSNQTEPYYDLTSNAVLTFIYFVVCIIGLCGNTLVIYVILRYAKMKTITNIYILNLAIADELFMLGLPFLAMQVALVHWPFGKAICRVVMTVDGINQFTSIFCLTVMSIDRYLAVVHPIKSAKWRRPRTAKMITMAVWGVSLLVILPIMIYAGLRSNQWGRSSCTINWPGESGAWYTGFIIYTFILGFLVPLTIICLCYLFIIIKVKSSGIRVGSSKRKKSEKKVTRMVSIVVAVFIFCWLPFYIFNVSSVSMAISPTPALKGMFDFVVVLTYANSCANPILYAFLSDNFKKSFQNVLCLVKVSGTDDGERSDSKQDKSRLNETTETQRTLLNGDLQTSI
Muscarinic M4, sequence (P08173 whole entry): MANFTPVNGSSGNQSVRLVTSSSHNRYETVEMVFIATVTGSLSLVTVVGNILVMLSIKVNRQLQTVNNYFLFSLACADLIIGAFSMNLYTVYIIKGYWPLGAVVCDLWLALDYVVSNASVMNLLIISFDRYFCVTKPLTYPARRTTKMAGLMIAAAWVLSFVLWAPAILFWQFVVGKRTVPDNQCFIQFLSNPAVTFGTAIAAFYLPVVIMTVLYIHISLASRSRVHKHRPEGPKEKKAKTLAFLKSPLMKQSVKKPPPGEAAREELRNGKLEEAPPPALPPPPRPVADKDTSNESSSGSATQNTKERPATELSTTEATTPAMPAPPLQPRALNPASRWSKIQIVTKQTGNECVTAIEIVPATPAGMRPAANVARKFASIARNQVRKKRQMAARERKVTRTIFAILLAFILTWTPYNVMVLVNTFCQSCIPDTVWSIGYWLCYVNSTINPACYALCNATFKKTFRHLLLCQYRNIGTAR
PDE4D2, sequence (Q08499 303-809 limits assumed): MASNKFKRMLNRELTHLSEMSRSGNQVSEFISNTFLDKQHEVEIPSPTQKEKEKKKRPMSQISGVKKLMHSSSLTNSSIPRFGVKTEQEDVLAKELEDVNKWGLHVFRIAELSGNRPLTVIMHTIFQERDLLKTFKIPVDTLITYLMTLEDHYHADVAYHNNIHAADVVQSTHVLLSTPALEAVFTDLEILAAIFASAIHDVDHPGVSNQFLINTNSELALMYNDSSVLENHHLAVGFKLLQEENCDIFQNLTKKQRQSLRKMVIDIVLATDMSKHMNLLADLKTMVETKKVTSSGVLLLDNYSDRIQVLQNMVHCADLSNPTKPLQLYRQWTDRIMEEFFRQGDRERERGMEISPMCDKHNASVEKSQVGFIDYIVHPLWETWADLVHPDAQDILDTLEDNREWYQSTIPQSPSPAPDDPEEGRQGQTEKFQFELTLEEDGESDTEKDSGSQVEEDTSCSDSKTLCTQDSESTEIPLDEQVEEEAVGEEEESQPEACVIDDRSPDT
Cholecystokinin CCK1, sequence (P32238 whole entry): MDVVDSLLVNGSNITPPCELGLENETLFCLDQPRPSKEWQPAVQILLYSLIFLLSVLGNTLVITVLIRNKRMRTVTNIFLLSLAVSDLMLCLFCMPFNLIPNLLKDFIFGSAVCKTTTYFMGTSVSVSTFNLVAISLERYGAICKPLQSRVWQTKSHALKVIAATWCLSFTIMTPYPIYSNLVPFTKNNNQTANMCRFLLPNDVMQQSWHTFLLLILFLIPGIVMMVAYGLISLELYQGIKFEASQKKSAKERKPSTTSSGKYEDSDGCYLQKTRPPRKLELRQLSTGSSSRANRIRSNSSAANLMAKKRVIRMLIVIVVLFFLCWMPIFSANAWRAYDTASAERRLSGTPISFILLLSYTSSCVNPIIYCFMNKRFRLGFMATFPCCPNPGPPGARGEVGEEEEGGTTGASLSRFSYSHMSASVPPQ
Cholecystokinin CCK2 (CCKB), sequence (P32239 whole entry): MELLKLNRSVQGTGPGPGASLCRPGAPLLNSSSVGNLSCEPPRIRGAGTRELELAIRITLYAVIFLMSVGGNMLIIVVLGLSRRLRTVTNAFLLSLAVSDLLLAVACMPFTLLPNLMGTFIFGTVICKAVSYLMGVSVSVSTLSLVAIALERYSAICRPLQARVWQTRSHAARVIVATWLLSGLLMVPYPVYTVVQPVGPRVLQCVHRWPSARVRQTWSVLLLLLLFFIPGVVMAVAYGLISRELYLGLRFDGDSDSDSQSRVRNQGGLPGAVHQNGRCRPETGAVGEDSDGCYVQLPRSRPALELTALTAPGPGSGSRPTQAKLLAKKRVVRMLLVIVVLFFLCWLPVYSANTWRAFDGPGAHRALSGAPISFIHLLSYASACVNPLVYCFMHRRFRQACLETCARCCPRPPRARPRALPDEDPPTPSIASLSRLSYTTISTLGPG
T4 sequence (P34995 whole entry): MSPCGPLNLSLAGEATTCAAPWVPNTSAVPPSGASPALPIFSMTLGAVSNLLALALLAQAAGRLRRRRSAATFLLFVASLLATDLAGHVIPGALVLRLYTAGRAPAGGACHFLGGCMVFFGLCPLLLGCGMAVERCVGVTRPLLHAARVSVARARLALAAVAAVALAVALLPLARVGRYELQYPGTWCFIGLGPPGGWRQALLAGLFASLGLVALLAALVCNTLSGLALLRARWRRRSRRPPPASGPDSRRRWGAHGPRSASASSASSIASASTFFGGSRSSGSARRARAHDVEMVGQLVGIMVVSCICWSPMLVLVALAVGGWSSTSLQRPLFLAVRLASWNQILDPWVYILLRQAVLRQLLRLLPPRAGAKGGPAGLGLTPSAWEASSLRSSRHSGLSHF
T2 sequence (P28335 33-458): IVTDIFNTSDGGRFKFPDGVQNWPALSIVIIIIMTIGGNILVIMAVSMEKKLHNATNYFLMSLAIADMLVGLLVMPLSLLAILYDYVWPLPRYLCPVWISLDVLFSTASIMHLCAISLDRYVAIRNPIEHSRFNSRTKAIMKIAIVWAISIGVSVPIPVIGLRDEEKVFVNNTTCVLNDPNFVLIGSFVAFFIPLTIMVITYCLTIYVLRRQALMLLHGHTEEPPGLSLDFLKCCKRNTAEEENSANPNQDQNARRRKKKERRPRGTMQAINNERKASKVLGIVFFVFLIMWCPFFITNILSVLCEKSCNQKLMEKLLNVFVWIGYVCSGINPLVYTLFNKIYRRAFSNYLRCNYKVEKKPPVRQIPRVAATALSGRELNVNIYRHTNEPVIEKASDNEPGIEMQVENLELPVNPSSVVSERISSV
T3 sequence (P30550 whole entry): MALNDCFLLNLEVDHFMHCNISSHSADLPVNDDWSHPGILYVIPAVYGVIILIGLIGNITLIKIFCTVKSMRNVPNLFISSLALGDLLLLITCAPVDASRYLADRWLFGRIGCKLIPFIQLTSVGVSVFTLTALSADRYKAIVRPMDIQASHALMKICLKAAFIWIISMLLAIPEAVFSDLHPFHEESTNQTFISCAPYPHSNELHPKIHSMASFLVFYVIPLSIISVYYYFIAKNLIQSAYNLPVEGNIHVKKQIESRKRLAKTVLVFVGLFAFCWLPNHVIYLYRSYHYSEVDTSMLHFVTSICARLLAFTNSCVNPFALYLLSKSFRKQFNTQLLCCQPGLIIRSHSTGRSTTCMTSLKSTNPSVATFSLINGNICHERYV
Galanin GAL1, sequence (P47211 whole entry): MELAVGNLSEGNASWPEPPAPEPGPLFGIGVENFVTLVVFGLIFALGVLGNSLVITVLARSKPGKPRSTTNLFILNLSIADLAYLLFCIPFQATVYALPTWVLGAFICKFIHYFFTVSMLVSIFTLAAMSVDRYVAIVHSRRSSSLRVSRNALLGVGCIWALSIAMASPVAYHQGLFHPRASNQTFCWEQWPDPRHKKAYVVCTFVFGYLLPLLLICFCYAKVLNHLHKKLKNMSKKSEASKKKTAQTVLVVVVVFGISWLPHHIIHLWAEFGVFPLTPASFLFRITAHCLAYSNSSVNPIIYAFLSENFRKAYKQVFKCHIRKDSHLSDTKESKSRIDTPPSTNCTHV
Adrenergic α2A, sequence (P08913 whole entry): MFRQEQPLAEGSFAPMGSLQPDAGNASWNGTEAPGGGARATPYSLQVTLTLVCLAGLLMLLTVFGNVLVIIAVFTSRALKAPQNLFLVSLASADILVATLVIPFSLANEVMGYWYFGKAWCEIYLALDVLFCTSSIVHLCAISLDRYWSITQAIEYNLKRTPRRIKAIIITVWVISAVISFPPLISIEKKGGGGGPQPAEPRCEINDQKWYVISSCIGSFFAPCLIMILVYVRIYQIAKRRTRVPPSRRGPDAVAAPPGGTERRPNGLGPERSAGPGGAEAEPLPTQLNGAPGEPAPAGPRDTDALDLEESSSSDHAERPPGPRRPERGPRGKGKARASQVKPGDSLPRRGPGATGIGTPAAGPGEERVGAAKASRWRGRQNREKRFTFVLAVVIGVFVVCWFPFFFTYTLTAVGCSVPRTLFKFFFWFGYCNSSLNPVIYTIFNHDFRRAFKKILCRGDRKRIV
Adrenergic β2, sequence (P07550 whole entry): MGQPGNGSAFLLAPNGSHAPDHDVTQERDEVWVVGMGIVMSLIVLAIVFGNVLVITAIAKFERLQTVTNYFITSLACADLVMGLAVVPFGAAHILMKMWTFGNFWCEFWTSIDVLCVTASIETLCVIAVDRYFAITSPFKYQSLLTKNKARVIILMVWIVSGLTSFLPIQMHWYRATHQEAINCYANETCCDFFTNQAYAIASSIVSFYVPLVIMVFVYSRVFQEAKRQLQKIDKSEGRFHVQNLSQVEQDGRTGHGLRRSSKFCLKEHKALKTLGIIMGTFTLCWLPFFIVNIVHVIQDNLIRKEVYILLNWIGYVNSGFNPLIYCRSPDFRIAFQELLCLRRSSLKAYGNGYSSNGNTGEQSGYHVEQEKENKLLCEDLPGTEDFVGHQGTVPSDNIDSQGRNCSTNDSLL

Cc1cc(-c2ncnn2C)c2cccc(OCc3c(Cl)cc(F)cc3[C@H](C)NC(=O)COC(F)F)c2n1 [Compound 3, (S)-N-(1-(3-chloro-5-fluoro-2-((2-methyl-4-(1-methyl-1H-1,2,4-triazol-5-yl)quinolin-8-yloxy)methyl)phenyl)ethyl)-2-(difluoromethoxy)acetamide]
concentration with clear efficacy in inhibiting BK-induced endocytosis [1]: ≥ 100 nM
inhibition at 10 µM [2]: 1%
% Inhibition @ 10 µM [3]: 6.3%
inhibition at 10 µM (Serotonin 5-HT2C): 5%
inhibition at 10 µM (Galanin GAL1): 22.4%
inhibition at 10 µM (PDE4D2): 4.4%
% Inhibition @ 10 µM [4]: 18%
inhibition at 10 µM (Adrenergic α2A): -1.7%
inhibition at 10 µM (Cholecystokinin CCK1): 2.7%
inhibition at 10 µM (Motilin): 5%
inhibition at 10 µM (Bombesin BB2): -1.4%
inhibition at 10 µM (Adrenergic β2): 3%
inhibition at 10 µM [5]: -1%
% Inhibition @ 10 µM (Purinergic receptor P2X): 6.3%
% Inhibition @ 10 µM (Kainate): -4.4%
inhibition at 10 µM (Prostanoid EP1): 80%
inhibition at 10 µM (Somatostatin sst2): -7%
IC50 (B2 receptor; arithmetic mean, read-out: IC50 (nM) Mean): 2.13 nM
Kb (B2 receptor; arithmetic mean, read-out: Kb (nM) Mean): 0.24 nM
IC50 (B2 receptor; geometric mean, read-out: IC50 (nM) Geometric mean): 2.13 nM
Kb (B2 receptor; geometric mean, read-out: Kb (nM) Geometric mean): 0.24 nM
inhibition at 10 µM (Muscarinic M4): -1.3%
% Inhibition @ 10 µM (Neurokinin NK2): 21%
inhibition at 10 µM (Neurokinin NK2): 21.2%
% Inhibition @ 10 µM [6]: 7.3%
